Consider 1 compound from US20180042875A1, “COMPOUND USE IN PROMOTING ENERGY EXPENDITURE” (NESTEC S.A., priority 2015, published 2018).

Data set [1] can be described thus: Oxygen consumption and RER in CLAMS (indirect calorimetry). The data set is classed as in vivo. The following applies: 18 week-old mice on chow diet, 25 mg/(kg*day), dark phase, FIG. 6.
The nature of data set [2]: Glucose excursion after intraperitoneal glucose (glucose tolerance). The settings on record: 12 hr fasted 20 week-old mice on chow diet or HFD, 25 mg/(kg*day), i.p. glucose 2 g/kg, FIG. 7. It is filed as in vivo. On the procedure: Glucose excursion curves were determined after an intraperitoneal injection of glucose (2 g/kg) on 12 hr fasted 20 week-old mice fed a chow diet or a HFD, supplemented with either water (Veh) or Quinic Acid (25 mg/(kg*day).

Data set [3] can be described thus: Rectal temperature in cold room (thermogenic function). The data set is classed as in vivo. The following applies: 24-week old mice on chow diet, 25 mg/(kg*day), cold room 6° C., no food, measured every hour, FIG. 10. On the procedure: Rectal temperature was measured at 8 a.m. (t=0) on 24-week old mice fed a chow diet, supplemented with either water (Veh) or Quinic Acid (25 mg/(kg*day). Then, mice were placed on a cold room (6° C.), with no access to food, and rectal temperature was measured every hour.

The next data set addresses T1, α-amylase (Sus scrofa, UniProt P00690).
T1 sequence (P00690 16-511): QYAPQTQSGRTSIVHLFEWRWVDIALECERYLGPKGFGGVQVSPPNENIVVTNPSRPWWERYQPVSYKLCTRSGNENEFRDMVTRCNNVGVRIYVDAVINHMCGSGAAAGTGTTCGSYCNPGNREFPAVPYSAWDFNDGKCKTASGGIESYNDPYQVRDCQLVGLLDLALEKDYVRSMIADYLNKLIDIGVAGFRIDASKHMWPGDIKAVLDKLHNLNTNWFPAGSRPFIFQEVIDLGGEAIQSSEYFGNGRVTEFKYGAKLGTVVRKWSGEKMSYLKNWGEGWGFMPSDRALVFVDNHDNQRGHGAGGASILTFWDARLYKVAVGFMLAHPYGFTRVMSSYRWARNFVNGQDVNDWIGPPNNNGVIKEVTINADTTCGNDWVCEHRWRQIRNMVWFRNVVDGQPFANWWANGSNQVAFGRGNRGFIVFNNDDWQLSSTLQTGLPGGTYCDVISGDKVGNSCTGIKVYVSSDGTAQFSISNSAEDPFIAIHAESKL
The settings on record: compared to caffeic and chlorogenic acids (Narita et al. 2009); cited from earlier work.

Data set [4] can be described thus: Body lean and fat mass composition by Echo-MRI. The data set is classed as in vivo, mice. The settings on record: 25 mg/(kg*day), FIG. 4. On the procedure: Body lean and fat mass composition of 18 week-old mice fed on chow diet or high-fat diet, supplemented with either water (Veh) or Quinic Acid (25 mg/(kg*day) was measured by nuclear magnetic resonance using an Echo-Magnetic Resonance Imaging (Echo-MRI) system (Echo Medical System LCC).

Data set [5] in a line: Treadmill endurance, increasing speed protocol. The settings on record: 26 week-old high-fat fed mice, 25 mg/(kg*day), FIG. 11. It is filed as in vivo. On the procedure:
26 week-old mice were place on a treadmill and endurance was evaluated by using a increasing speed protocol, as described previously (Lagouge et al., 2006, PMID: 17112576). The tests were performed on low and high fat-fed mice supplemented with either water (Veh) or Quinic Acid (25 mg/(kg*day).

A further data set relates to lipase. The settings on record: enzyme involved in digestion of lipids; cited from earlier work.
Data set [6] can be described thus: Food intake (tolerance / food aversion) of mice on supplemented diet. It is filed as in vivo. On the procedure:
Mice were fed a low fat diet supplemented with either water (Veh) or quinic acid at low dose (25 mg/(kg*day)) or high dose (HD, 100 mg/(kg*day). Food intake was calculated between 12 and 18 weeks of age by weighing the food placed on the tray of the cage at the start of the week and the amount remaining 5 days later.
Mice were fed a high fat diet (60% fat) supplemented with either water (Veh) or quinic acid at low dose (25 mg/(kg*day)) or high dose (HD, 100 mg/(kg*day). Calculations for food intake were made in the same manner as for mice on chow diet.
Powder low fat diet (LFD; Research Diets Inc.; Ref: D12450J) was reconstituted into ˜20 gram pellets using 100 ml of water/kg of food. In addition to normal low fat diet pellets, two additional groups were made by adding quinic acid (QA) to the water used for reconstitution. A first group (low dose) was created, where 0.25 g of QA were added per Kg of food (this means, 0.25 grams per 100 ml of water). In a second group (high dose), 1 g of QA was added per Kg of food (this means, 1 gram per […] of water). […]
At 10 weeks of age, 60 male mice were randomly distributed in 6 groups (n=10 per group) and provided the different diets: LFD (Control, Low Dose and High Dose) or HFD (Control, Low Dose and High Dose). […] During this time, body weight and food intake was monitored weekly.

A short description of data set [7]: Body weight evolution on chow or high-fat diet. The data set is classed as in vivo, mice. The following applies: 25 mg/(kg*day), FIG. 3. On the procedure:
Body weight evolution on mice fed on chow diet or high-fat diet, supplemented with either water (Veh) or Quinic Acid (25 mg/(kg*day) was calculated. At 10 weeks of age, 60 male mice were randomly distributed in 6 groups (n=10 per group) and provided the different diets: LFD (Control, Low Dose and High Dose) or HFD (Control, Low Dose and High Dose). Mice were maintained for 8 weeks on their corresponding diets before phenotyping took place. During this time, body weight and food intake was monitored weekly.

Data set [8] can be described thus: Glucose excursion after intraperitoneal insulin (insulin response). It is filed as in vivo, mice. The following applies: 6 hr fast, 25 mg/(kg*day). The protocol: Glucose excursion curves were determined after an intraperitoneal injection of insulin (0.3 U/Kg) after a 6 hr fast on 22 week-old mice fed a chow diet, supplemented with either water (Veh) or Quinic Acid (25 mg/(kg*day). Glucose excursion curves were determined after an intraperitoneal injection of insulin (0.75 U/Kg) after a 6 hr fast on 22 week-old mice fed a high-fat diet, supplemented with either water (Veh) or Quinic Acid (25 mg/(kg*day).

The next data set addresses sucrase (Homo sapiens, UniProt P14410). The settings on record: enzyme involved in digestion of carbohydrates; cited from earlier work.
The subject of another data set is maltase. The following applies: enzyme involved in digestion of carbohydrates; cited from earlier work.

Sequence of sucrase (P14410 whole entry, species assumed): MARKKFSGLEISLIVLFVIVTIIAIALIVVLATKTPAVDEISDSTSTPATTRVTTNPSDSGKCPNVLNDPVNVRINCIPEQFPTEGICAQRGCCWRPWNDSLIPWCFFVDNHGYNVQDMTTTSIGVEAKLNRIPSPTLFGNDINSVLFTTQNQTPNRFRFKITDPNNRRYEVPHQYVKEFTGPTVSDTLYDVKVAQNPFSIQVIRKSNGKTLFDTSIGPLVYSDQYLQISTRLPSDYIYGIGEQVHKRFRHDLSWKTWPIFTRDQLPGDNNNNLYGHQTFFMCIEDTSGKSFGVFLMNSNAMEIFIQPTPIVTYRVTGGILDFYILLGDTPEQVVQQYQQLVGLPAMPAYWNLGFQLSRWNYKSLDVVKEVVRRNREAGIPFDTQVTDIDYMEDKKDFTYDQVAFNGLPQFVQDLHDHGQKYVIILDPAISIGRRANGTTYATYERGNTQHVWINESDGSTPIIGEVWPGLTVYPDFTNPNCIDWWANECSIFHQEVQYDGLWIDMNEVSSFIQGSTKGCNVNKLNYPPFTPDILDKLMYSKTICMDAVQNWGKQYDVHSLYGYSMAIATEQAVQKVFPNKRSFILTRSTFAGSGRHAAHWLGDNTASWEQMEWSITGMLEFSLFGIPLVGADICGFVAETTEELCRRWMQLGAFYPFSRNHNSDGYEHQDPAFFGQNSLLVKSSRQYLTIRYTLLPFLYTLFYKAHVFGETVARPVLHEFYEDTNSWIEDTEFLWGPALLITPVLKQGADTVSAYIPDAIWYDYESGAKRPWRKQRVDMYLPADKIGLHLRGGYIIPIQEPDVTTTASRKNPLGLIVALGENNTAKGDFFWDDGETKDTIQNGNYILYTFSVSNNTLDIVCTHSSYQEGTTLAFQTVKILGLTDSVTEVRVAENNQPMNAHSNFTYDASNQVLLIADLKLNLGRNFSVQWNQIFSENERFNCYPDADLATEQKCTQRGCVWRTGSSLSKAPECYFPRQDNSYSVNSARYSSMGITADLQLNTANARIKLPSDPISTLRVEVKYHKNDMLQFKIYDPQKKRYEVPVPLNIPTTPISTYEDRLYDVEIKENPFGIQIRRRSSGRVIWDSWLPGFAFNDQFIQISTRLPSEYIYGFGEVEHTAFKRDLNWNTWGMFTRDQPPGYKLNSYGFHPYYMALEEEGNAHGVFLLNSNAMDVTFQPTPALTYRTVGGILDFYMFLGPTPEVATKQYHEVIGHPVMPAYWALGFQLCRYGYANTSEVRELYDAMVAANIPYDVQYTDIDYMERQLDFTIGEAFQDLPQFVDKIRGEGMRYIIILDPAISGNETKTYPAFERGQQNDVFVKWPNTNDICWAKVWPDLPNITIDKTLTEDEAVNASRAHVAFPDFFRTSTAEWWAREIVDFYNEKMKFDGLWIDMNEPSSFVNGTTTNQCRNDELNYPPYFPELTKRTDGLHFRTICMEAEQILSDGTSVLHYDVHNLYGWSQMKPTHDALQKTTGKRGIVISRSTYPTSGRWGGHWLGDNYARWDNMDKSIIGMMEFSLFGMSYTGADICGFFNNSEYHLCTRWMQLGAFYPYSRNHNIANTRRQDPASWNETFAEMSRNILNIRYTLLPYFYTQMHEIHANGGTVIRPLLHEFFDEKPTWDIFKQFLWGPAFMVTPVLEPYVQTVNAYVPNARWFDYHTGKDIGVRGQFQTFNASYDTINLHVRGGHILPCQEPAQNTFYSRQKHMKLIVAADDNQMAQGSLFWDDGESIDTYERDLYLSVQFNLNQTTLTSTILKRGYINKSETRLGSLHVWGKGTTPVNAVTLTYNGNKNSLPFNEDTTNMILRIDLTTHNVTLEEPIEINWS

Take `O=C(O)[C@]1(O)C[C@@H](O)[C@@H](O)[C@H](O)C1` [Quinic acid]: the “carbohydrate metabolism (total carbohydrate oxidation = 4.55*VO2-3.21*VCO2)” value in data set [1] is “enhanced”. In addition, the “energy consumption (oxygen consumption)” value in [1] is recorded as “enhanced energy consumption”. In addition, the glucose tolerance result in data set [2] is “moderately enhanced glucose tolerance”. In data set [3], the “thermogenic function (rectal temperature)” value was “enhanced thermogenic function”. On α-amylase, the “inhibition of α-amylase” value is on record as “poor inhibitor”. In addition, the “fat deposition (fat mass, Echo-MRI)” value in data set [4] (18 week-old mice on chow diet) and in data set [4] (18 week-old mice on high-fat diet) was “reduced fat deposition” each time. Also, the “endurance performance (treadmill)” value in data set [5] was “potentiates endurance performance”. Moreover, in the data set on lipase, the effect on lipase result is “no effect”. Also, the “food aversion (food intake)” value in data set [6] (mice on chow (low fat) diet, high dose 100 mg/(kg*day), 12-18 weeks of age, FIG. 1) is “caused food aversion”; in data set [6] (mice on high fat diet (60% fat), low dose 25 or high dose 100 mg/(kg*day), FIG. 2), “did not cause food aversion”. Also, the body weight gain entry in [7] (mice on high-fat diet) and in [7] (mice on low-fat (chow) diet) was “reduced weight gain” in each case. For the same compound, the insulin response result in [8] (22 week-old chow-fed mice, i.p. insulin 0.3 U/Kg, FIG. 8) is given as “did not alter insulin response”; in [8] (22 week-old high-fat fed mice, i.p. insulin 0.75 U/Kg, FIG. 9), “did not significantly affect insulin response”. Moreover, the basal glycemia result in [8] (22 week-old high-fat fed mice, FIG. 9) is “lowered basal glycemia”. Also, the effect on sucrase result on sucrase is on record as “no effect”. Besides, the effect on maltase result with maltase is on record as “no effect”.
